Among the data in PubChem BioAssay AID248 (DTP/NCI, 2004) are T/C values, retold here.

Each structure is given as a SMILES string. Several values for one entry are separate records, joined by “and”; a condition that tells them apart may be missing. Equal values may be shown once. Toxic doses and inconclusive results are not listed.

The test system of this test is L1210 leukemia ip in BDF1 mice, survival T/C. Put plainly: NCI In Vivo Anticancer Drug Screen. Data for tumor model L1210 Leukemia (intraperitoneal) in B6D2F1 (BDF1) mice. As to conditions: endpoint: mean survival time, higher = longer survival. In a few lines:
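Ratio derived from survival: compound-dosed mice over vehicle-dosed mice, all bearing a transplantable tumor.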

Where [1] appears, read: dose: 100.0 mg/kg/injection, schedule: Q04DX002 (ip), vehicle: Klucel (hydroxypropylcellulose) (HPC).
[2] abbreviates: dose: 200.0 mg/kg/injection, schedule: Q04DX002 (ip), vehicle: Klucel (hydroxypropylcellulose) (HPC).
Where [3] appears, read: dose: 400.0 mg/kg/injection, schedule: Q04DX002 (ip), vehicle: Klucel (hydroxypropylcellulose) (HPC).
Setting [4] is: dose: 100.0 mg/kg/injection, schedule: Q01DX009 (ip), vehicle: Klucel (hydroxypropylcellulose) (HPC).
Where [5] appears, read: dose: 100.0 mg/kg/injection, schedule: Q04DX003 (ip), vehicle: saline.
The mark [6] stands for this setting: dose: 200.0 mg/kg/injection, schedule: Q01DX009 (ip), vehicle: Klucel (hydroxypropylcellulose) (HPC).
The mark [7] stands for this setting: dose: 400.0 mg/kg/injection, schedule: Q01DX009 (ip), vehicle: Klucel (hydroxypropylcellulose) (HPC).
The mark [8] stands for this setting: dose: 400.0 mg/kg/injection, schedule: Q04DX003 (ip), vehicle: saline.
Where [9] appears, read: dose: 100.0 mg/kg/injection, schedule: Q01DX009 (ip), vehicle: saline with Tween-80.
Where [10] appears, read: dose: 100.0 mg/kg/injection, schedule: Q04DX003 (ip), vehicle: saline with Tween-80.
The mark [11] stands for this setting: dose: 200.0 mg/kg/injection, schedule: Q04DX003 (ip), vehicle: saline with Tween-80.
[12] abbreviates: dose: 400.0 mg/kg/injection, schedule: Q04DX003 (ip), vehicle: saline with Tween-80.
Where [13] appears, read: dose: 100.0 mg/kg/injection, schedule: Q04DX002 (ip), vehicle: saline with Tween-80.
Where [14] appears, read: dose: 100.0 mg/kg/injection, schedule: Q04DX003 (ip), vehicle: Klucel (hydroxypropylcellulose) (HPC).
Where [15] appears, read: dose: 200.0 mg/kg/injection, schedule: Q04DX003 (ip), vehicle: Klucel (hydroxypropylcellulose) (HPC).
Setting [16] is: dose: 400.0 mg/kg/injection, schedule: Q04DX003 (ip), vehicle: Klucel (hydroxypropylcellulose) (HPC).
Where [17] appears, read: dose: 100.0 mg/kg/injection, schedule: Q01DX001 (ip), vehicle: saline.
Where [18] appears, read: dose: 200.0 mg/kg/injection, schedule: Q01DX001 (ip), vehicle: saline.
Where [19] appears, read: dose: 400.0 mg/kg/injection, schedule: Q01DX001 (ip), vehicle: saline.

Take `O=c1[nH]c2ccccc2nc1C(Cl)(Cl)Cl`: the T/C was 112 % of control under setting [1] and 105 % of control under setting [2].
Take `CCOC(=O)c1c(N)cc(=O)[nH]c1O`: the T/C runs as follows: (dose: 75.0 mg/kg/injection, schedule: Q01DX001 (ip), vehicle: saline) 101 % of control; (dose: 150.0 mg/kg/injection, schedule: Q01DX001 (ip), vehicle: saline) 98 % of control; (dose: 300.0 mg/kg/injection, schedule: Q01DX001 (ip), vehicle: saline) 95 % of control.
As to `OC(c1ccccc1)C(c1ccccc1)C1CO1` (configuration not stated), the T/C was 88 % of control (dose: 12.5 mg/kg/injection, schedule: Q01DX009 (ip), vehicle: DMSO); 91 % of control (dose: 25.0 mg/kg/injection, schedule: Q01DX009 (ip), vehicle: DMSO); 103 % of control (dose: 100.0 mg/kg/injection, schedule: Q04DX003 (ip), vehicle: other); 103 % of control (dose: 200.0 mg/kg/injection, schedule: Q04DX003 (ip), vehicle: other); 94 % of control (dose: 400.0 mg/kg/injection, schedule: Q04DX003 (ip), vehicle: other).
For `O=C(O)c1ccccc1N=Cc1ccc[nH]1`, the T/C was 115 % of control under setting [1], 100 % of control under setting [2] and 96 % of control under setting [3].
As to `Sc1ccc2ccccc2c1`, the T/C was 94 % of control under setting [4]; 91 % of control under setting [5]; 121 % of control under setting [6]; 88 % of control (dose: 200.0 mg/kg/injection, schedule: Q04DX003 (ip), vehicle: saline); 110 % of control under setting [7]; 86 % of control under setting [8].
For `COC1OC(CNC(=O)N(C)N=O)C(O)C(O)C1O` (configuration not stated), the T/C is 115 % of control under setting [5]; 116 % of control (dose: 115.0 mg/kg/injection, schedule: Q04DX003 (ip), vehicle: saline); 120 % of control (dose: 132.0 mg/kg/injection, schedule: Q04DX003 (ip), vehicle: saline); 150 % of control and 170 % of control (dose: 200.0 mg/kg/injection, schedule: Q01DX009 (ip), vehicle: saline); 173 % of control (dose: 300.0 mg/kg/injection, schedule: Q01DX009 (ip), vehicle: saline); 166 % of control (dose: 400.0 mg/kg/injection, schedule: Q01DX009 (ip), vehicle: saline). Also, the T/C under setting [8] was 150 % of control and 160 % of control.
Turning to `CC(Br)(c1ccccc1)[P+](c1ccccc1)(c1ccccc1)c1ccccc1` (configuration not stated), the T/C is, setting by setting: (dose: 15.0 mg/kg/injection, schedule: Q01DX001 (ip), vehicle: carboxymethylcellulose (CMC)) 96 % of control; (dose: 30.0 mg/kg/injection, schedule: Q01DX001 (ip), vehicle: carboxymethylcellulose (CMC)) 101 % of control.
As to `NC1(C(=O)O)CCCC2CCCCC21` (configuration not stated), the T/C is, setting by setting: under setting [4], 100 % of control; under setting [1], 93 % of control; under setting [6], 96 % of control; under setting [2], 93 % of control; under setting [7], 91 % of control; under setting [3], 96 % of control.
On to `CCCC(O)Cc1c[nH]c(=O)[nH]c1=O` (configuration not stated), for which the T/C by setting is: (dose: 50.0 mg/kg/injection, schedule: Q01DX009 (ip), vehicle: saline with Tween-80) 103 % of control; under setting [9], 98 % of control; under setting [10], 95 % of control; under setting [11], 98 % of control.
On to `O=[N+]([O-])c1cc[n+]([O-])c(Br)c1`, for which the T/C under setting [9] is 98 % of control; the T/C under setting [10] is 108 % of control; the T/C (dose: 200.0 mg/kg/injection, schedule: Q01DX009 (ip), vehicle: saline with Tween-80) is 103 % of control; the T/C under setting [11] is 101 % of control; the T/C (dose: 400.0 mg/kg/injection, schedule: Q01DX009 (ip), vehicle: saline with Tween-80) is 97 % of control; the T/C under setting [12] was 93 % of control.
In the case of `CCCCOP(=O)(OCCCC)N(C)c1ccccc1`, the T/C (dose: 25.0 mg/kg/injection, schedule: Q04DX002 (ip), vehicle: saline with Tween-80) is 89 % of control; the T/C (dose: 50.0 mg/kg/injection, schedule: Q04DX002 (ip), vehicle: saline with Tween-80) is 95 % of control; the T/C under setting [13] was 92 % of control and 93 % of control.
Turning to `COc1ccccc1NC(=O)Nc1ccc(SC)cc1`, the T/C runs as follows: under setting [4], 98 % of control; under setting [14], 91 % of control; under setting [6], 103 % of control; under setting [15], 103 % of control; under setting [7], 97 % of control; under setting [16], 96 % of control.
For `Cc1cc(=O)n(-c2ccccc2)c2ccccc12`, the T/C by setting is: under setting [17], 103 % of control; under setting [18], 97 % of control; under setting [19], 100 % of control.
`Cc1c(O)c(Br)c(-c2c(C)c(Br)c(C)c([N+](=O)[O-])c2C)c(O)c1Br`: the T/C is 103 % of control (dose: 75.0 mg/kg/injection, schedule: Q04DX003 (ip), vehicle: Klucel (hydroxypropylcellulose) (HPC)); 93 % of control (dose: 150.0 mg/kg/injection, schedule: Q04DX003 (ip), vehicle: Klucel (hydroxypropylcellulose) (HPC)); 88 % of control (dose: 300.0 mg/kg/injection, schedule: Q04DX003 (ip), vehicle: Klucel (hydroxypropylcellulose) (HPC)).
Consider `NC(=O)NC1CCCCC1`, for which the T/C was 87 % of control under setting [10], 97 % of control under setting [11] and 92 % of control under setting [12].
On the same counts, the results for `CCOC(=O)c1sc(SSc2nc(C)c(C(=O)OCC)s2)nc1C` are 102 % of control, 94 % of control and 91 % of control.
With `O=C(O)c1cncc(-c2ccccc2)c1`, the T/C was 104 % of control under setting [13] and 111 % of control (dose: 200.0 mg/kg/injection, schedule: Q04DX002 (ip), vehicle: saline with Tween-80).
Regarding `Fc1ccc(NC(=S)S)cc1`, the T/C is, setting by setting: (dose: 6.25 mg/kg/injection, schedule: Q04DX003 (ip), vehicle: saline with Tween-80) 94 % of control; (dose: 12.5 mg/kg/injection, schedule: Q04DX003 (ip), vehicle: saline with Tween-80) 99 % of control; (dose: 25.0 mg/kg/injection, schedule: Q04DX003 (ip), vehicle: saline with Tween-80) 91 % of control.
For `O=C1c2ccccc2C(=O)c2c(Sc3ccccc3)cccc21`, the T/C under setting [10] was 96 % of control, the T/C under setting [11] is 98 % of control and the T/C under setting [12] was 95 % of control.
On to `CC(=O)N1Cc2c(N)ncnc2C1C` (configuration not stated), for which the T/C runs as follows: under setting [17], 100 % of control; under setting [18], 108 % of control; under setting [19], 114 % of control.
`C[N+](C)(C)CCNC(=O)C12CC3CC(CC(C3)C1)C2`: the T/C by setting is: (dose: 25.0 mg/kg/injection, schedule: Q04DX002 (ip), vehicle: saline) 89 % of control; (dose: 50.0 mg/kg/injection, schedule: Q04DX002 (ip), vehicle: saline) 94 % of control; (dose: 100.0 mg/kg/injection, schedule: Q04DX002 (ip), vehicle: saline) 86 % of control.
Consider `Cc1[nH]c(=O)[nH]c(=O)c1[N+](=O)[O-]`, for which the T/C was 94 % of control under setting [4]; 102 % of control under setting [14]; 101 % of control under setting [6]; 104 % of control under setting [15]; 87 % of control under setting [7]; 102 % of control under setting [16].
As to `c1ccc(-c2ccc([Si](c3ccccc3)(c3ccccc3)c3ccc(-c4ccccc4)cc3)cc2)cc1`, the T/C is, setting by setting: (dose: 50.0 mg/kg/injection, schedule: Q01DX009 (ip), vehicle: Klucel (hydroxypropylcellulose) (HPC)) 104 % of control; (dose: 50.0 mg/kg/injection, schedule: Q04DX003 (ip), vehicle: Klucel (hydroxypropylcellulose) (HPC)) 94 % of control; under setting [4], 93 % of control; under setting [14], 96 % of control; under setting [6], 87 % of control; under setting [15], 98 % of control.
Take `Cc1ccc(S(=O)(=O)c2ccc(S(=O)(=O)c3ccccc3)cc2)cc1`: the T/C was 95 % of control and 92 % of control under setting [17]; 97 % of control under setting [18]; 105 % of control and 91 % of control under setting [19].
Turning to `Cc1nc(N)[nH]c(=O)c1CCCN=Cc1ccccc1`, the T/C under setting [4] was 101 % of control, the T/C under setting [6] was 92 % of control and the T/C under setting [7] was 95 % of control.
